Here are results for 17 compounds from patent US9227923B2, “Pesticidal carboxamides” (Bayer Intellectual Property GmbH, priority 2009, dated 2016).

The test system of series [1] is Tobacco Cutworm (Spodoptera litura) Larvae. Kind of series: Test against tobacco cutworm (Spodoptera litura) larvae, leaf dip. Conditions: active compound concentration of 100 ppm, third instar larvae, after 7 days; for pest or weed control at 100 ppm: Spodoptera litura, foliar, 168 h, read-out: insecticidal activity. The class given is in vivo. In short, it runs like this:
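Sweet potato leaves were dipped in the test solution (DMF solvent, polyoxyethylene alkyl phenyl ether emulsifier), air-dried and offered to ten third-instar larvae per dish at 25 °C, with fresh leaves added on days 2 and 4. Mortality was counted at day 7 and expressed as % insecticidal activity (100% = all dead).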

Series [2] has as its system Cucurbit Leaf Beetle (Aulacophora Femoralis). The series is described as follows: Test against cucurbit leaf beetle (Aulacophora femoralis), leaf dip. The note with it: active compound concentration of 100 ppm, second instar larvae, after 7 days; for pest or weed control at 100 ppm: Aulacophora, foliar, 168 h, read-out: insecticidal activity. In kind it is in vivo. In short, it runs like this: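 Cucumber leaves dipped in compound solution (DMF solvent, polyoxyethylene alkyl phenyl ether emulsifier), air-dried, and placed with five second-instar larvae in cups on sterilized soil at 25° C. Dead larvae counted after 7 days; activity expressed as percent larvae killed.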

The test system of a further series is Boophilus microplus. Kind of series: Boophilus microplus test (injection). The class given is in vivo. The note with it: Rhipicephalus microplus, 168 h, read-out: activity (mortality in %; 100% means that all eggs are infertile). The method, then: (§1) Solvent: dimethyl sulfoxide
Five adult engorged female ticks (Boophilus microplus) are injected with […] compound solution into the abdomen. Ticks are transferred into replica plates and incubated in a climate chamber for a period of time. Egg deposition of fertile eggs is monitored.
After 7 days mortality in % is determined. 100% means that all eggs are infertile; 0% means that all eggs are fertile. […]

The subject of series [3] is Lucilia cuprina 1st instar larvae. The series is described as follows: whole plant or invertebrate. In kind it is in vivo. Conditions: for mortality at 100 ppm: Lucilia cuprina, 48 h, read-out: activity (percentage of larval mortality); for activity (percentage of larval mortality): application rate of 100 ppm, after 48 hrs. As for the experimental part: species: Lucilia cuprina 1st instar larvae (age 24 hrs)
solvent: dimethyl sulfoxide
Serial dilutions are made to obtain the desired rates. Approximately 20 Lucilia cuprina 1st instar larvae are transferred into a test tube containing 1 cm^3 of minced horse meat and 0.5 ml aqueous dilution of test compound. After 48 hrs percentage of larval mortality are recorded. 100% efficacy=all larvae are killed, […].

The subject of the next series is Ctenocephalides felis. The series is described as follows: whole plant or invertebrate. The class given is in vivo. Conditions: for activity (mortality in %): application rate of 100 ppm in cattle blood, after 2 days; for mortality at 100 ppm: Ctenocephalides felis, in Bos taurus, 48 h, read-out: activity (mortality in %). The method, then:
as §1
Approximately 20 adult unfed (Ctenocepahlides felis) are placed in flea chambers. […] The blood chamber is heated to 37° C. whereas the flea chamber is kept at room temperature.

For series [4], the system named is Two-Spotted Spider Mite (Tetranychus Urticae). Kind of series: Test against two-spotted spider mite (Tetranychus urticae), spray. In kind it is in vivo. Conditions: active compound concentration of 100 ppm; adult mites; after 7 days. From the text: Solvent: 3 parts by weight of dimethylformamide
Emulsifier: 1 part by weight of polyoxyethylene alkyl phenyl ether

For a further series, the system named is Musca domestica. Kind of series: whole plant or invertebrate. The note with it: 48 h, read-out: activity (mortality in %). As for the experimental part:
as §1
Prior to the assay, a piece of kitchen sponge is soaked with a mixture of sugar and compound solution and placed into a container. 10 adults (Musca domestica) are placed into the container and closed with a perforated lid. After 2 days mortality in % is determined 100% means that all the flies have been killed; 0% means that none of the flies have been killed.

For the compound `CCc1cc(C(F)(C(F)(F)F)C(F)(F)F)cc(C)c1NC(=O)c1ccc(C#N)c(C)c1` [Compound I-5, 4-cyano-N[2-ethyl-4-(1,1,1,2,3,3,3-heptafluoropropan-2-yl)-6-methylphenyl]-3-methylbenzamide], the pest or weed control at 100 ppm in series [1] and in series [2] was 100% each time. The mortality at 0.02 mg with Boophilus microplus worked out at 100%. The mortality at 100 ppm in series [3] turned out to be 100%.
With `CCc1cc(C(F)(C(F)(F)F)C(F)(F)F)cc(C)c1NC(=O)c1ccc(CN2C(=O)c3ccccc3C2=O)cc1` [Compound F-4, 4-[(1,3-dioxo-1,3-dihydro-2H-isoindol-2-yl)methyl]-N-[2-ethyl-4-(1,1,1,2,3,3,3-hepta-fluoropropan-2-yl)-6-methylphenyl]benzamide], the mortality at 0.02 mg with Boophilus microplus came to 100%. Further, the mortality at 100 ppm in series [3] came out at 90%.
Take `CCC(=O)NCc1ccc(C(=O)Nc2c(C)cc(C(F)(C(F)(F)F)C(F)(F)C(F)(F)F)cc2CC)cc1` (stereo not drawn) [Compound 5-139]: the insecticidal activity in series [1] and in series [2] was 100% throughout. For the same compound, in the series on Ctenocephalides felis, the “activity (mortality in %)” value worked out at 98%.
As to `CCc1cc(C(F)(C(F)(F)F)C(F)(F)C(F)(F)F)cc(C)c1NC(=O)c1ccc(CNC(=O)C2CC2)c(Br)c1` (stereo not drawn) [Compound 5-159], in series [1], the insecticidal activity is given as 100%. Besides, the “activity (mortality in %)” value with Ctenocephalides felis was determined as 98%.
Take `CCc1cc(C(F)(C(F)(F)F)C(F)(F)C(F)(F)F)cc(C)c1NC(=O)c1ccc(CNC(=O)c2cccnc2F)c(F)c1` (stereo not drawn) [Compound 5-174]: the insecticidal activity in series [1] and in series [2] was 100% throughout. Also, in series [3], the “activity (percentage of larval mortality)” value was found to be 95%.
For the compound `CCc1cc(C(F)(C(F)(F)F)C(F)(F)F)cc(C)c1NC(=O)c1ccc(CNC(=O)c2cccnc2F)c(Cl)c1` [Compound 5-82], the insecticidal activity in series [1] and in series [2] was 100% in each case. Also, the acaricidal activity in series [4] was 100%. Moreover, the “activity (percentage of larval mortality)” value in series [3] is 95%.
As for `O=C(Nc1c(Br)cc(C(F)(C(F)(F)F)C(F)(F)F)cc1Br)c1ccc(-n2cncn2)cc1` [Compound 1-78, N-[2,6-dibromo-4-(1,1,1,2,3,3,3-heptafluoropropan-2-yl)-phenyl]-4-(1H-1,2,4-triazol-1-yl)benzamide], the pest or weed control at 100 ppm in series [1] and in series [2] was 100% throughout. For the same compound, in series [4], the acaricidal activity was 100%. The mortality at 0.02 mg in the series with Boophilus microplus was determined as 100%. For the same compound, the mortality at 100 ppm (in the series on Ctenocephalides felis; in series [3]; in the series with Musca domestica) was 100% in each case.
As to `CCc1cc(C(F)(C(F)(F)F)C(F)(F)F)cc(C)c1NC(=O)c1ccc(CNC(C)=O)cc1` [Compound 5-28, 4-(acetamidomethyl)-N-[2-ethyl-4-(1,1,1,2,3,3,3-heptafluoro-propan-2-yl)-6-methylphenyl]benzamide], the pest or weed control at 100 ppm in series [1] was 100%. In series [4], this compound returned an acaricidal activity of 100%. For the same compound, the mortality at 0.02 mg with Boophilus microplus amounted to 100%. Also, in the series with Ctenocephalides felis, the mortality at 100 ppm came out at 100%.
As to `CCc1cc(C(F)(C(F)(F)F)C(F)(F)C(F)(F)F)cc(C)c1NC(=O)c1ccc(CNC(=O)C2CC2)c(F)c1` (stereo not drawn) [Compound 5-146], the insecticidal activity in series [1] came out at 100%. In addition, the “activity (percentage of larval mortality)” value in series [3] is reported as 95%.
In the case of `CCc1cc(C(F)(C(F)(F)F)C(F)(F)C(F)(F)F)cc(C)c1NC(=O)c1ccc(CNC(=O)CC(F)(F)F)cc1` (stereo not drawn) [Compound 5-142], the insecticidal activity in series [1] and in series [2] was 100% each time. Further, the “activity (percentage of larval mortality)” value in series [3] worked out at 95%.
Take `CCc1cc(C(F)(C(F)(F)F)C(F)(F)F)cc(C)c1NC(=O)c1ccc(-n2cncn2)c(C#N)c1` [Compound 1-49, 3-cyano-N-[2-ethyl-4-(1,1,1,2,3,3,3-heptafluoropropan-2-yl)-6-methylphenyl]-4-(1H-1,2,4-triazol-1-yl)benzamide]: the pest or weed control at 100 ppm in series [1] and in series [2] was 100% each time. The compound also displayed an acaricidal activity in series [4] of 100%. In addition, the mortality at 0.02 mg with Boophilus microplus came to 100%. The mortality at 100 ppm amounted to 95% in the series with Ctenocephalides felis and 100% in series [3].
For the compound `CCc1cc(C(F)(C(F)(F)F)C(F)(F)F)cc(C)c1NC(=O)c1ccc(-n2cncn2)c(N)c1` [Compound 1-38, 3-amino-N-[2-ethyl-4-(1,1,1,2,3,3,3-heptafluoropropan-2-yl)-6-methylphenyl]-4-(1H-1,2,4-triazol-1-yl)benzamide], in series [1], the pest or weed control at 100 ppm was 100%. In the series with Boophilus microplus, the mortality at 0.02 mg stood at 100%. For the same compound, the mortality at 100 ppm (with Ctenocephalides felis; in series [3]) was 100% in each case.
For the compound `CCc1cc(C(F)(C(F)(F)F)C(F)(F)F)cc(C)c1NC(=O)c1ccc(-n2cncn2)c(NC(=O)OC)c1` [Compound 1-47, Methyl[5-{[2-ethyl-4-(1,1,1,2,3,3,3-heptafluoropropan-2-yl)-6methylphenyl]carbamoyl}-2-(1H-1,2,4-triazol-1-yl)phenyl]carbamate], the pest or weed control at 100 ppm in series [1] and in series [2] was 100% throughout. Besides, the mortality at 0.02 mg in the series with Boophilus microplus was found to be 100%. Moreover, the mortality at 100 ppm in the series with Ctenocephalides felis was 90%.
In series [1], `CCc1cc(C(F)(C(F)(F)F)C(F)(F)C(F)(F)F)cc(C)c1NC(=O)c1ccc(CNC(C)=O)c(I)c1` (stereo not drawn) [Compound 5-194] returned an insecticidal activity of 100%. Moreover, the “activity (percentage of larval mortality)” value in series [3] is given as 95%.
For the compound `CCc1cc(C(F)(C(F)(F)F)C(F)(F)F)cc(C)c1NC(=O)c1ccc(CNC(=O)CC(F)(F)F)c(C)c1` [Compound 5-102], the pest or weed control at 100 ppm in series [1] and in series [2] was 100% each time. For the same compound, in series [4], the acaricidal activity was 100%. Besides, the mortality at 0.02 mg in the series on Boophilus microplus worked out at 100%.
As for `CCc1cc(C(F)(C(F)(F)F)C(F)(F)F)cc(C)c1NC(=O)c1ccc(-n2cncn2)c([N+](=O)[O-])c1` [Compound 1-39, N-[2-ethyl-4-(1,1,1,2,3,3,3-heptafluoropropan-2-yl)-6-methyl-phenyl]-3-nitro-4-(1H-1,2,4-triazol-1-yl)benzamide], the pest or weed control at 100 ppm in series [1] was 100%. Also, the acaricidal activity in series [4] is reported as 100%. Also, the mortality at 0.02 mg in the series with Boophilus microplus was found to be 100%. The mortality at 100 ppm (in the series with Ctenocephalides felis; in series [3]; with Musca domestica) was 100% each time.
`CCc1cc(C(F)(C(F)(F)F)C(F)(F)F)cc(C)c1NC(=O)c1ccc(-n2cncn2)cc1` [Compound 1-31, N-[2-ethyl-4-(1,1,1,2,3,3,3-heptafluoropropan-2-yl)-6-methylphenyl]-4-(1H-1,2,4-triazol-1-yl)benzamide]: the pest or weed control at 100 ppm in series [1] and in series [2] was 100% throughout. The same compound came in with an acaricidal activity in series [4] of 100%. The mortality at 0.02 mg in the series with Boophilus microplus is 100%. Moreover, the mortality at 100 ppm in the series with Ctenocephalides felis came to 90%; in series [3] it was 100%.
